# According to ChEMBL document CHEMBL1201862, “PubChem BioAssay data set” (2004):
#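 The compound was tested at five concentrations on cells cultured in 96-well plates, with a 48-hour exposure period. The concentration for 50% growth inhibition is given as GI50.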 Active and inactive are the calls of the source. Rule as the data show it: active = GI50 up to about 1.1 µM and inactive = higher.
# Tests used:
# Experiment in all cases: NCI anticancer screen, dose series, 48 h
# [1] = system: HT-29
# [2] = system: SR
# [3] = system: NCI-H522
# [4] = system: SNB-19
# [5] = system: OVCAR-4
# [6] = system: LOX IMVI
# [7] = system: SK-MEL-5
# [8] = system: U-251
# [9] = system: A549
# [10] = system: MOLT-4
# [11] = system: HCT-15
# [12] = system: SF-539
# [13] = system: UACC-257
# [14] = system: M14
# [15] = system: EKVX
# [16] = system: RPMI-8226
# [17] = system: NCI-H460
# [18] = system: Hs-578T
# [19] = system: DU-145
# [20] = system: MDA-N
Compound,GI50 [1],GI50 [2],GI50 [3],GI50 [4],GI50 [5],GI50 [6],GI50 [7],GI50 [8],GI50 [9],GI50 [10],GI50 [11] [µM],GI50 [12],GI50 [13],GI50 [14],GI50 [15],GI50 [16],GI50 [17],GI50 [18],GI50 [19],GI50 [20]
CN(N=O)C(=O)NC(CCCCNC(=O)OCc1ccccc1)C(=O)OCc1ccccc1 (stereo not drawn),66.4 µM (inactive),14.9 µM (inactive),13.1 µM (inactive),> 100 µM (inactive),71.1 µM (inactive),17.4 µM (inactive),20.4 µM (inactive),53.3 µM (inactive),83 µM (inactive),26.6 µM (inactive),36,17.4 µM (inactive),16.5 µM (inactive),19.3 µM (inactive),> 100 µM (inactive),33.5 µM (inactive),43.9 µM (inactive),,,
O=C(NC1CCCCC1)c1nn[nH]c1Cl,> 100 µM (inactive),,,> 100 µM (inactive),> 100 µM (inactive),> 100 µM (inactive),> 100 µM (inactive),> 100 µM (inactive),> 100 µM (inactive),> 100 µM (inactive),> 100,> 100 µM (inactive),> 100 µM (inactive),> 100 µM (inactive),> 100 µM (inactive),,> 100 µM (inactive),> 100 µM (inactive),> 100 µM (inactive),
O=C(/C=C/c1ccc(OCC(=O)N2CCN(c3ccccc3)CC2)cc1)c1ccccc1,4.33 µM (inactive),2.72 µM (inactive),3.6 µM (inactive),20.1 µM (inactive),14.3 µM (inactive),3.68 µM (inactive),7.57 µM (inactive),7.14 µM (inactive),44.4 µM (inactive),3.05 µM (inactive),7.5,16.9 µM (inactive),17.1 µM (inactive),29.8 µM (inactive),34.7 µM (inactive),3.75 µM (inactive),> 46.1 µM (inactive),,,
c1ccc2c(c1)SCCCSCCCS2,> 10 µM (inactive),50.5 µM (inactive),> 100 µM (inactive),> 100 µM (inactive),76 µM (inactive),> 100 µM (inactive),> 100 µM (inactive),> 100 µM (inactive),> 100 µM (inactive),67.6 µM (inactive),> 100,> 100 µM (inactive),> 100 µM (inactive),> 100 µM (inactive),> 100 µM (inactive),,> 100 µM (inactive),,> 100 µM (inactive),> 100 µM (inactive)
CNC(=S)/N=C(\N)N(C)C,> 100 µM (inactive),> 100 µM (inactive),> 100 µM (inactive),> 100 µM (inactive),> 10 µM (inactive),> 100 µM (inactive),> 100 µM (inactive),> 100 µM (inactive),> 100 µM (inactive),> 100 µM (inactive),> 100,> 100 µM (inactive),> 10 µM (inactive),> 100 µM (inactive),> 100 µM (inactive),> 100 µM (inactive),> 100 µM (inactive),,,
CC(=O)/C(=C/N1CC(=O)NC1=S)C(=O)Nc1ccccc1C,> 100 µM (inactive),,,> 100 µM (inactive),> 100 µM (inactive),> 100 µM (inactive),> 100 µM (inactive),> 100 µM (inactive),> 100 µM (inactive),> 100 µM (inactive),> 100,> 100 µM (inactive),> 100 µM (inactive),> 100 µM (inactive),> 100 µM (inactive),,> 100 µM (inactive),,> 100 µM (inactive),> 100 µM (inactive)
CCOc1ccc(/C=C2\NC(=S)N(/C=C3\C(=O)Oc4ccccc4C3=O)C2=O)cc1,32.5 µM (inactive),,20.7 µM (inactive),22.8 µM (inactive),28.1 µM (inactive),28.9 µM (inactive),19.7 µM (inactive),29 µM (inactive),> 10 µM (inactive),24.3 µM (inactive),20.7,16.3 µM (inactive),26.6 µM (inactive),31.6 µM (inactive),24.7 µM (inactive),,21.4 µM (inactive),23.4 µM (inactive),22.4 µM (inactive),
CCCCCCCCCCCCOC(=S)NCCCC,19 µM (inactive),19 µM (inactive),14.5 µM (inactive),37.4 µM (inactive),25.8 µM (inactive),17 µM (inactive),,20.2 µM (inactive),,15.9 µM (inactive),19.5,21.3 µM (inactive),16.5 µM (inactive),27.8 µM (inactive),18.3 µM (inactive),15.7 µM (inactive),24.4 µM (inactive),,,
B.CC(=O)OC1CN2CCC1CC2 (stereo not drawn),> 100 µM (inactive),> 100 µM (inactive),,,,,> 100 µM (inactive),> 100 µM (inactive),> 100 µM (inactive),> 100 µM (inactive),> 100,> 100 µM (inactive),,> 100 µM (inactive),> 100 µM (inactive),,> 100 µM (inactive),> 100 µM (inactive),> 100 µM (inactive),
CC1=C(/C=C/C(C)=C/C2CC(N(C)C)=CC(=O)O2)C(C)(C)CCC1 (stereo not drawn),13.2 µM (inactive),8.09 µM (inactive),> 10 µM (inactive),15.2 µM (inactive),16 µM (inactive),15.2 µM (inactive),5.45 µM (inactive),14.6 µM (inactive),9.75 µM (inactive),3.2 µM (inactive),,16.5 µM (inactive),11.9 µM (inactive),14.8 µM (inactive),14.4 µM (inactive),1.37 µM (inactive),17.7 µM (inactive),,,
Cc1ccc(N2C(=O)C=C(C3=C(O)C(=O)N(c4ccc(C)cc4)C3=O)C2=O)cc1,> 100 µM (inactive),> 100 µM (inactive),,> 100 µM (inactive),> 100 µM (inactive),> 100 µM (inactive),> 100 µM (inactive),> 100 µM (inactive),> 100 µM (inactive),> 100 µM (inactive),> 100,,> 100 µM (inactive),> 100 µM (inactive),> 100 µM (inactive),> 100 µM (inactive),> 100 µM (inactive),,> 100 µM (inactive),> 100 µM (inactive)
Cc1cc(OC(=O)NCn2cc(-c3ccccc3)nn2)ccc1Cl,73.5 µM (inactive),83 µM (inactive),54.2 µM (inactive),91.2 µM (inactive),78.7 µM (inactive),66.8 µM (inactive),> 100 µM (inactive),> 100 µM (inactive),95.5 µM (inactive),28.3 µM (inactive),97.9,54.2 µM (inactive),> 100 µM (inactive),67.3 µM (inactive),> 100 µM (inactive),78.2 µM (inactive),67.6 µM (inactive),,68.7 µM (inactive),
COc1cc(OC)c2c3c(OC)cc(OC)c4c(=O)c(O)c(C[C@@H](C)O)c(c5c(C[C@@H](C)O)c(O)c(=O)c1c25)c43,18.6 µM (inactive),,,57.5 µM (inactive),30.5 µM (inactive),12.6 µM (inactive),14.2 µM (inactive),23.5 µM (inactive),36.7 µM (inactive),15.3 µM (inactive),19.2,24.8 µM (inactive),34.3 µM (inactive),17.4 µM (inactive),32.4 µM (inactive),,27.2 µM (inactive),,30.8 µM (inactive),18.7 µM (inactive)
CCOC(=O)C1=C(C)N(NC(=O)Nc2ccccc2)C(=O)C1=P(c1ccccc1)(c1ccccc1)c1ccccc1,52.2 µM (inactive),16.9 µM (inactive),19.4 µM (inactive),> 100 µM (inactive),35.2 µM (inactive),41.2 µM (inactive),33.8 µM (inactive),33.9 µM (inactive),48.9 µM (inactive),18.8 µM (inactive),27.5,28.2 µM (inactive),45.7 µM (inactive),32.4 µM (inactive),54.3 µM (inactive),24.2 µM (inactive),38.6 µM (inactive),,,
COC(=O)C1C(=O)CC(C)(O)C(C(=O)OC)C1c1ccc(N(C)C)cc1 (stereo not drawn),> 100 µM (inactive),> 100 µM (inactive),> 100 µM (inactive),> 100 µM (inactive),> 100 µM (inactive),11.6 µM (inactive),> 100 µM (inactive),> 100 µM (inactive),> 100 µM (inactive),> 100 µM (inactive),> 100,,> 100 µM (inactive),,> 100 µM (inactive),,> 100 µM (inactive),,> 100 µM (inactive),> 100 µM (inactive)
C/C=C/C[C@@H](C)[C@@H](O)[C@H]1C(=O)N[C@@H](CC)C(=O)N(C)CC(=O)N(C)[C@@H](CC(C)C)C(=O)N[C@@H](C(C)C)C(=O)N(C)[C@@H](CC(C)C)C(=O)N[C@@H](C)C(=O)N[C@H](C)C(=O)N(C)[C@@H](CC(C)C)C(=O)N(C)[C@@H](CC(C)C)C(=O)N(C)[C@@H](C(C)C)C(=O)N1C [CYCLOSPORINE],2.29 µM (inactive),1.47 µM (inactive),5.48 µM (inactive),10.5 µM (inactive),4.18 µM (inactive),2.43 µM (inactive),3.78 µM (inactive),7.66 µM (inactive),5.25 µM (inactive),2.98 µM (inactive),4.48,4.3 µM (inactive),2.05 µM (inactive),2.61 µM (inactive),10.4 µM (inactive),2.48 µM (inactive),3.87 µM (inactive),,,
